The text below walks through data of PubChem BioAssay AID326 (DTP/NCI, 2004).

In this experiment the test system is CD2F1 mice, P388/DHAQ leukemia ip, median survival T/C. The experiment is described as follows: NCI In Vivo Anticancer Drug Screen. Data for tumor model P388 Leukemia resistant to Dihydroxy Anthracenedione; NSC 299195 (intraperitoneal) in CD2F1 (CDF1) mice. Particulars: endpoint: median survival time, higher = longer survival. How it is done: The antitumor activity of compounds was measured in mice bearing transplantable tumors. Survival or tumor size were measured and the results are expressed as the measurement made in the treated group (T) divided by the measurement made in the vehicle treated control group (C). The tumor model used in this assay is P388 Leukemia resistant to Dihydroxy Anthracenedione; NSC 299195 (intraperitoneal) in CD2F1 (CDF1) mice

The structures appear in SMILES notation. “And” between values parts separate entries of the source, which are not always exact repeats. Equal values may be shown once. Toxic doses and inconclusive results are not listed. Numbered stars: 1 amine (or outer) side, 2 acyl side, 3 side chain; on linkers, the order of the positions; unused ones are H or OH. Bridge positions count the residues as written; N and C are the ends. Square brackets hold non-standard residues; d marks the D form. Peptide text beside a SMILES is read from it. I, II: the chains in the order shown. Actinocin(9to1) = Cc1c2oc3c(C)ccc(C(=O)[*:1])c3nc-2c(C(=O)[*:2])c(N)c1=O; aThr = C[C@H](O)[C@H](N)C(=O)O; NMeV = CN[C@H](C(=O)O)C(C)C; Sar = CNCC(=O)O

Take `COc1ccc(CCN(C)CCCC(C#N)(c2ccc(OC)c(OC)c2)C(C)C)cc1OC` (stereo not given): the T/C is 100 % of control (dose: 16.0 mg/kg/injection, schedule: Q03HX004 (ip), vehicle: saline) and 103 % of control (dose: 32.0 mg/kg/injection, schedule: Q03HX004 (ip), vehicle: saline).
For the compound `O=C1c2ccccc2C(=O)c2c(NCCNCCO)ccc(NCCNCCO)c21`, the T/C (dose: 13.0 mg/kg/injection, schedule: Q04DX003 (ip), vehicle: saline) was 109 % of control; the T/C (dose: 21.6 mg/kg/injection, schedule: Q04DX003 (ip), vehicle: saline) is 120 % of control; the T/C (dose: 36.0 mg/kg/injection, schedule: Q04DX003 (ip), vehicle: saline) is 123 % of control; the T/C (dose: 60.0 mg/kg/injection, schedule: Q04DX003 (ip), vehicle: saline) was 108 % of control.
For `C[n+]1ccc(Nc2ccc(NC(=O)c3ccc(Nc4cc[n+](C)c5ccc(N)cc45)cc3)cc2)cc1`, the T/C is, setting by setting: (dose: 1.94 mg/kg/injection, schedule: Q04DX003 (ip), vehicle: water) 114 % of control; (dose: 3.24 mg/kg/injection, schedule: Q04DX003 (ip), vehicle: water) 116 % of control; (dose: 5.4 mg/kg/injection, schedule: Q04DX003 (ip), vehicle: water) 116 % of control.
Regarding `O=C(Nc1ccc(C2=NCCN2)cc1)c1ccc(C(=O)Nc2ccc(C3=NCCN3)cc2)c(Cl)c1`, the T/C (dose: 16.2 mg/kg/injection, schedule: Q04DX003 (ip), vehicle: saline with Tween-80) is 94 % of control; the T/C (dose: 27.0 mg/kg/injection, schedule: Q04DX003 (ip), vehicle: saline with Tween-80) was 98 % of control; the T/C (dose: 45.0 mg/kg/injection, schedule: Q04DX003 (ip), vehicle: saline with Tween-80) is 97 % of control.
For the compound `O=CC(NC(=O)N(CCCl)N=O)C(O)C(O)C(O)CO` (stereo not given), the T/C is, setting by setting: (dose: 7.2 mg/kg/injection, schedule: Q04DX002 (ip), vehicle: saline) 201 % of control; (dose: 12.0 mg/kg/injection, schedule: Q04DX002 (ip), vehicle: saline) 181 % of control; (dose: 20.0 mg/kg/injection, schedule: Q04DX002 (ip), vehicle: saline) 412 % of control.
Regarding `COc1cc([C@@H]2c3cc4c(cc3[C@@H](OC3OC5COC(C)OC5C(O)C3O)[C@H]3COC(=O)[C@H]23)OCO4)cc(OC)c1O` (stereo not given in full), the T/C (dose: 7.78 mg/kg/injection, schedule: Q04DX003 (ip), vehicle: water) is 123 % of control; the T/C (dose: 13.0 mg/kg/injection, schedule: Q04DX003 (ip), vehicle: water) was 124 % of control; the T/C (dose: 18.0 mg/kg/injection, schedule: Q04DX003 (ip), vehicle: clinical formulation) is 155 % of control; the T/C (dose: 18.0 mg/kg/injection, schedule: Q04DX003 (ip), vehicle: water) was 153 % of control; the T/C (dose: 30.0 mg/kg/injection, schedule: Q04DX003 (ip), vehicle: clinical formulation) is 162 % of control; the T/C (dose: 30.0 mg/kg/injection, schedule: Q04DX003 (ip), vehicle: water) was 105 % of control. Where the note is “dose: 50.0 mg/kg/injection, schedule: Q04DX003 (ip), vehicle: clinical formulation”, the T/C was 166 % of control.
On to `O=NN(CCCl)C(=O)NCCCl`, for which the T/C by setting is: (dose: 5.4 mg/kg/injection, schedule: Q04DX003 (ip), vehicle: saline + alcohol) 193 % of control; (dose: 6.48 mg/kg/injection, schedule: Q04DX002 (ip), vehicle: saline + alcohol) 150 % of control; (dose: 9.0 mg/kg/injection, schedule: Q04DX003 (ip), vehicle: saline + alcohol) 319 % of control; (dose: 10.8 mg/kg/injection, schedule: Q04DX002 (ip), vehicle: saline + alcohol) 168 % of control and 205 % of control; (dose: 15.0 mg/kg/injection, schedule: Q04DX003 (ip), vehicle: saline + alcohol) 463 % of control; (dose: 18.0 mg/kg/injection, schedule: Q04DX002 (ip), vehicle: saline + alcohol) 317 % of control and 412 % of control. Besides, the T/C (dose: 25.0 mg/kg/injection, schedule: Q04DX003 (ip), vehicle: saline + alcohol) was 463 % of control; the T/C (dose: 30.0 mg/kg/injection, schedule: Q04DX002 (ip), vehicle: saline + alcohol) is 412 % of control and 420 % of control.
Regarding `O=C(Nc1ccc(C2=NCCCN2)cc1)c1ccc(C(=O)Nc2ccc(C3=NCCCN3)cc2)cc1`, the T/C is 110 % of control (dose: 4.32 mg/kg/injection, schedule: Q04DX003 (ip), vehicle: Klucel (hydroxypropylcellulose) (HPC)); 106 % of control (dose: 6.48 mg/kg/injection, schedule: Q04DX003 (ip), vehicle: Klucel (hydroxypropylcellulose) (HPC)); 110 % of control (dose: 7.2 mg/kg/injection, schedule: Q04DX003 (ip), vehicle: Klucel (hydroxypropylcellulose) (HPC)); 110 % of control and 119 % of control (dose: 10.8 mg/kg/injection, schedule: Q04DX003 (ip), vehicle: Klucel (hydroxypropylcellulose) (HPC)); 112 % of control (dose: 12.0 mg/kg/injection, schedule: Q04DX003 (ip), vehicle: Klucel (hydroxypropylcellulose) (HPC)); 107 % of control and 121 % of control (dose: 18.0 mg/kg/injection, schedule: Q04DX003 (ip), vehicle: Klucel (hydroxypropylcellulose) (HPC)). Moreover, the T/C is, setting by setting: (dose: 20.0 mg/kg/injection, schedule: Q04DX003 (ip), vehicle: Klucel (hydroxypropylcellulose) (HPC)) 111 % of control; (dose: 30.0 mg/kg/injection, schedule: Q04DX003 (ip), vehicle: Klucel (hydroxypropylcellulose) (HPC)) 100 % of control; (dose: 50.0 mg/kg/injection, schedule: Q04DX003 (ip), vehicle: Klucel (hydroxypropylcellulose) (HPC)) 107 % of control.
`Cc1c2oc3c(C)ccc(C(=O)N[C@@H]4C(=O)N[C@H](C(C)C)C(=O)N5CCC[C@H]5C(=O)N(C)CC(=O)N(C)[C@@H](C(C)C)C(=O)O[C@H]4C)c3nc-2c(C(=O)N[C@@H]2C(=O)N[C@H](C(C)C)C(=O)N3CCC[C@H]3C(=O)N(C)CC(=O)N(C)[C@@H](C(C)C)C(=O)O[C@H]2C)c(N)c1=O` (I: [aThr][dV]P[Sar][NMeV] / II: [aThr][dV]P[Sar][NMeV]; ester I:1-I:C, II:1-II:C; linker I:N-II:N via Actinocin(9to1)): the T/C is 152 % of control and 154 % of control (dose: 108.0 micrograms/kg/injection, schedule: Q04DX003 (ip), vehicle: saline + alcohol); 152 % of control (dose: 130.0 micrograms/kg/injection, schedule: Q04DX003 (ip), vehicle: saline + alcohol); 157 % of control and 176 % of control (dose: 180.0 micrograms/kg/injection, schedule: Q04DX003 (ip), vehicle: saline + alcohol); 200 % of control (dose: 216.0 micrograms/kg/injection, schedule: Q04DX003 (ip), vehicle: saline + alcohol); 192 % of control and 201 % of control (dose: 300.0 micrograms/kg/injection, schedule: Q04DX003 (ip), vehicle: saline + alcohol); 206 % of control (dose: 360.0 micrograms/kg/injection, schedule: Q04DX003 (ip), vehicle: saline + alcohol). Further, the T/C (dose: 500.0 micrograms/kg/injection, schedule: Q04DX003 (ip), vehicle: saline + alcohol) is 209 % of control and the T/C (dose: 600.0 micrograms/kg/injection, schedule: Q04DX003 (ip), vehicle: saline + alcohol) is 227 % of control.
On to `N[C@@H](Cc1ccc(N(CCCl)CCCl)cc1)C(=O)O`, for which the T/C was 114 % of control and 119 % of control and 120 % of control (dose: 1.94 mg/kg/injection, schedule: Q04DX002 (ip), vehicle: saline); 106 % of control (dose: 1.94 mg/kg/injection, schedule: Q04DX003 (ip), vehicle: saline); 117 % of control and 118 % of control (dose: 3.24 mg/kg/injection, schedule: Q04DX002 (ip), vehicle: saline); 117 % of control (dose: 3.24 mg/kg/injection, schedule: Q04DX003 (ip), vehicle: saline); 157 % of control and 160 % of control and 163 % of control (dose: 9.0 mg/kg/injection, schedule: Q04DX002 (ip), vehicle: saline); 157 % of control (dose: 9.0 mg/kg/injection, schedule: Q04DX003 (ip), vehicle: saline). In addition, the T/C was 102 % of control and 118 % of control (dose: 15.0 mg/kg/injection, schedule: Q04DX002 (ip), vehicle: saline); 152 % of control and 156 % of control (dose: 15.0 mg/kg/injection, schedule: Q04DX003 (ip), vehicle: saline).
